# Laboratory results from patent publication EP0377642B1, “HERBICIDES FOR WEED CONTROL IN RICE” (E.I. DU PONT DE NEMOURS AND COMPANY, priority 1987, dated 1989).
# Tests used:
# Format in all cases: in vivo
# rice [1] = test: Effects on rice growth in Thailand, phytotoxicity (Table 2); details: scale 0-10
# Text: (§1) Methyl 2-[[[[(4-methoxy-6-methyl-1,3,5-triazin-2-yl)amino]carbonyl]amino]sulfonyl]benzoate (Compound 1) and mixtures thereof with other compounds were applied as a spray (using a hand sprayer) to rice (either transplanted or direct seeded) in several rice growing areas in Southeast Asia and in the U.S. Tables 1-28 contain the results of these tests and clearly exemplify the utility of this invention. The details of each application are included in the appropriate table. [drawing 2]
# Sphenoclea zeylanica [2] = test: Herbicidal efficacy alone and with 2,4-D in Malaysia, applied 30 days after seeding (Table 8); details: 22 days after treatment
# Text: as §1
# Scirpus grossus = test: as above; details: 22 days after treatment
# Text: as §1
# Marsilea crenata = test: as above; details: 22 days after treatment
# Text: as §1
# Monochoria vaginalis = test: as above; details: 22 days after treatment
# Text: as §1
# FIMBRISTYLIS MILIACEA = test: as above; details: 22 days after treatment
# Text: as §1
# Cyperus difformis = test: as above; details: 22 days after treatment
# Text: as §1
# rice [3] = test: Effects in combination with Thiobencarb and Bensulfuron Methyl on rice growth (Table 22); details: rate 8 g ai/ha; var. Koshihikari, applied 7 days after transplanting, rated 21 days after application
# Text: as §1
# Sphenoclea zeylanica [4] = test: Field test, herbicidal efficacy in rice, Thailand, applied 36 days after seeding (Table 1); details: 100=complete control
# Text: as §1
compound,measurement,setting,value
"COC(=O)c1ccccc1S(=O)(=O)NC(=O)Nc1nc(C)nc(OC)n1 [Compound 1, Methyl 2-[[[[(4-methoxy-6-methyl-1,3,5-triazin-2-yl)amino]carbonyl]amino]sulfonyl]benzoate]",PHYTOTOXICITY,"rice [1]; applied 7 DAS, 3 GAI/HA",1.67
same,PHYTOTOXICITY,"rice [1]; applied 7 DAS, 6 GAI/HA",1.33
same,PHYTOTOXICITY,"rice [1]; applied 14 DAS, 3 GAI/HA",1.0
same,PHYTOTOXICITY,"rice [1]; applied 14 DAS, 6 GAI/HA",1.0
same,PHYTOTOXICITY,"rice [1]; applied 21 DAS, 3 GAI/HA",0
same,PHYTOTOXICITY,"rice [1]; applied 21 DAS, 6 GAI/HA",0
same,PHYTOTOXICITY,"rice [1]; applied 28 DAS, 3 GAI/HA",0
same,PHYTOTOXICITY,"rice [1]; applied 28 DAS, 6 GAI/HA",0
same,% CONTROL SZ,Sphenoclea zeylanica [2]; 1 GAI/HA,0%
same,% CONTROL SZ,Sphenoclea zeylanica [2]; 2 GAI/HA,100%
same,% CONTROL SZ,Sphenoclea zeylanica [2]; 3 GAI/HA,100%
same,% CONTROL SZ,Sphenoclea zeylanica [2]; 4 GAI/HA,100%
same,% CONTROL SZ,Sphenoclea zeylanica [2]; 5 GAI/HA,100%
same,% CONTROL SG,Scirpus grossus; 1 GAI/HA,80%
same,% CONTROL SG,Scirpus grossus; 2 GAI/HA,100%
same,% CONTROL SG,Scirpus grossus; 3 GAI/HA,95%
same,% CONTROL SG,Scirpus grossus; 4 GAI/HA,95%
same,% CONTROL SG,Scirpus grossus; 5 GAI/HA,100%
same,% CONTROL MC,Marsilea crenata; 1 GAI/HA,20%
same,% CONTROL MC,Marsilea crenata; 2 GAI/HA,95%
same,% CONTROL MC,Marsilea crenata; 3 GAI/HA,100%
same,% CONTROL MC,Marsilea crenata; 4 GAI/HA,95%
same,% CONTROL MC,Marsilea crenata; 5 GAI/HA,100%
same,% CONTROL MV,Monochoria vaginalis; 1 GAI/HA,95%
same,% CONTROL MV,Monochoria vaginalis; 2 GAI/HA,95%
same,% CONTROL MV,Monochoria vaginalis; 3 GAI/HA,100%
same,% CONTROL MV,Monochoria vaginalis; 4 GAI/HA,100%
same,% CONTROL MV,Monochoria vaginalis; 5 GAI/HA,100%
same,% CONTROL FM,FIMBRISTYLIS MILIACEA; 1 GAI/HA,0%
same,% CONTROL FM,FIMBRISTYLIS MILIACEA; 2 GAI/HA,100%
same,% CONTROL FM,FIMBRISTYLIS MILIACEA; 3 GAI/HA,50%
same,% CONTROL FM,FIMBRISTYLIS MILIACEA; 4 GAI/HA,50%
same,% CONTROL FM,FIMBRISTYLIS MILIACEA; 5 GAI/HA,20%
same,% CONTROL CD,Cyperus difformis; 1 GAI/HA,0%
same,% CONTROL CD,Cyperus difformis; 2 GAI/HA,100%
same,% CONTROL CD,Cyperus difformis; 3 GAI/HA,95%
same,% CONTROL CD,Cyperus difformis; 4 GAI/HA,100%
same,% CONTROL CD,Cyperus difformis; 5 GAI/HA,100%
same,CROP TOLERANCE DW (Dry weight relative to untreated check),rice [3],92%
same,CROP TOLERANCE PH (Plant height relative to untreated check),rice [3],99%
same,CROP TOLERANCE VA (Visual crop injury),rice [3],0.5%
same,Herbicidal efficacy SZ 2WAA,"Sphenoclea zeylanica [4]; Trial 1, 2 GAI/HA",100
same,Herbicidal efficacy SZ 4WAA,"Sphenoclea zeylanica [4]; Trial 1, 2 GAI/HA",100
same,Herbicidal efficacy SZ 6WAA,"Sphenoclea zeylanica [4]; Trial 1, 2 GAI/HA",100
same,Herbicidal efficacy SZ 2WAA,"Sphenoclea zeylanica [4]; Trial 1, 3 GAI/HA",99
same,Herbicidal efficacy SZ 4WAA,"Sphenoclea zeylanica [4]; Trial 1, 3 GAI/HA",100
same,Herbicidal efficacy SZ 6WAA,"Sphenoclea zeylanica [4]; Trial 1, 3 GAI/HA",100
same,Herbicidal efficacy SZ 2WAA,"Sphenoclea zeylanica [4]; Trial 1, 4 GAI/HA",100
same,Herbicidal efficacy SZ 4WAA,"Sphenoclea zeylanica [4]; Trial 1, 4 GAI/HA",100
same,Herbicidal efficacy SZ 6WAA,"Sphenoclea zeylanica [4]; Trial 1, 4 GAI/HA",100
same,Herbicidal efficacy SZ 2WAA,"Sphenoclea zeylanica [4]; Trial 1, 6 GAI/HA",100
same,Herbicidal efficacy SZ 4WAA,"Sphenoclea zeylanica [4]; Trial 1, 6 GAI/HA",100
same,Herbicidal efficacy SZ 6WAA,"Sphenoclea zeylanica [4]; Trial 1, 6 GAI/HA",100
same,Herbicidal efficacy SZ 2WAA,"Sphenoclea zeylanica [4]; Trial 2, 2 GAI/HA",97
same,Herbicidal efficacy SZ 4WAA,"Sphenoclea zeylanica [4]; Trial 2, 2 GAI/HA",99
same,Herbicidal efficacy SZ 6WAA,"Sphenoclea zeylanica [4]; Trial 2, 2 GAI/HA",99
same,Herbicidal efficacy SZ 2WAA,"Sphenoclea zeylanica [4]; Trial 2, 3 GAI/HA",100
same,Herbicidal efficacy SZ 4WAA,"Sphenoclea zeylanica [4]; Trial 2, 3 GAI/HA",100
